Where two headings read alike, the source gives them in different places.

For one data set, the system named is Vanin-1. To be noted: cited from earlier work.
Data set [1] has as its system GSH. Nature of the data set: GSH levels in liver of treated mice. The format is in vivo, mouse. How it is done:
(§1) Indomethacin (Sigma) was administered at a dose of 25 mg/kg in 5% sodium carbonate to Vanin-1^−/− (n=5) and WT (n=5) mice in 2 SC injections at 12 h-interval. Mice were sacrificed 20 hrs after the first injection. […] Cystamine was given by gavage 3 times on day 1 and once on day 2 at the dose of 120 mg/kg. The dose was adjusted so as to not induce intestinal inflammation. Mice were sacrificed 5 hours after the last gavage. To evaluate the impact of cystamine on indomethacin treatment, Vanin-1^−/− (n=5) and WT (n=5) mice received cystamine preceding indomethacin injection. In a complement study, indomethacin-treated WT mice (n=5) were supplemented with N-acetylcysteine (NAC) to determine the relationship between GSH depletion and injury. The antioxidant was given by gavage (200 μl of a 150 mg/ml, pH 7 solution) three times a day, starting 12 hrs prior indomethacin treatment.
(§2) γ-GCS activity was determined by the method described by (Seelig, 1984). GSH levels were determined according to Tietze et al., (1969).

The target in data set [2] is T1, γ-GCS (Mus musculus, UniProt P97494).
T1 construct: Determination of γ-GCS Activity and GSH Levels in Liver and Intestine; from tissue; host or cells: liver and intestine of WT and Vanin-1-/- BALB/c mice
T1 sequence (P97494 1-637): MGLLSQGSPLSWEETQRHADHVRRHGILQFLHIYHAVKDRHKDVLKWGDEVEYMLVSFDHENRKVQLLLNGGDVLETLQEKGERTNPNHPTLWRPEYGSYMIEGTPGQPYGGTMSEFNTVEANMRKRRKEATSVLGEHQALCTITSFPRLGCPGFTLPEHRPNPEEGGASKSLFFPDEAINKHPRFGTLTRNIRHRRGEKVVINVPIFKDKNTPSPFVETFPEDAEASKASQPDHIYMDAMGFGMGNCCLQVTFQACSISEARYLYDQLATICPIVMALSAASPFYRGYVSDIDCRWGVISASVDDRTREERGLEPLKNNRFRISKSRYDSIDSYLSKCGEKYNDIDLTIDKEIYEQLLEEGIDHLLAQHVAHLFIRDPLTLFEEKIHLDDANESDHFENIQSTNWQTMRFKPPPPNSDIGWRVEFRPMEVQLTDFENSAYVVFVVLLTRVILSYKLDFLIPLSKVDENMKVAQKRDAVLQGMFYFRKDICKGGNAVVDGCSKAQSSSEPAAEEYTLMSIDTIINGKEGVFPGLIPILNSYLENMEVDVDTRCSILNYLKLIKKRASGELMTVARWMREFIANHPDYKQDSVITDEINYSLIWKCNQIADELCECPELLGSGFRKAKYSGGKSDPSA
T1 sequence (O09172 1-274 partner): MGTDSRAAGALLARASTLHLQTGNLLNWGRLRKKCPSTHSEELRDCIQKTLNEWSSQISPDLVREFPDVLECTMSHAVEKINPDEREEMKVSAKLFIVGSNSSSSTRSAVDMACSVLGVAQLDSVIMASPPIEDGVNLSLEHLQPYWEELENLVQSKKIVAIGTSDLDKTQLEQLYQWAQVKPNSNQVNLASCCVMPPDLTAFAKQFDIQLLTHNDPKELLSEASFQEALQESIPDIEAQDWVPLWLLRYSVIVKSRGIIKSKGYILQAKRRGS
The experiment in a line: γ-GCS activity in liver of treated mice. The format is in vivo. Here is the method:
as §1, §2

Data set [3] deals with GSH. The experiment in a line: GSH levels in intestine of treated mice. The format is in vivo, mouse. How it is done: as §1, §2
Data set [4] concerns the target T1, γ-GCS. Nature of the data set: γ-GCS activity in intestine of treated mice. The format is in vivo. Here is the method:
as §1, §2

Data set [5] deals with MIP-2, iNOS, COX-2, and COX-1 mRNAs. Nature of the data set: Semi-quantitative RT-PCR of inflammatory factors in jejunum. The format is in vivo, mouse. Here is the method: as §1
Total cellular RNA was isolated from jejunum samples of indomethacin-treated mice, by guanidinium thiocyanate phenol-chloroform extraction.

The next data set relates to MPO. Nature of the data set: Intestinal myeloperoxidase (MPO) activity. To be noted: jejunum, after indomethacin treatment. The format is in vivo, mouse. Here is the method:
as §1, with “treatment. 3-cm intestinal samples taken in the most injured part, i.e. the colon of S. mansoni-infected mice and the jejunum of indomethacin-treated mice. Samples were homogenized in 0.5% hexadecyltrimethyl-ammonium bromide. MPO activity was determined as described previously (Liaudet, 2000).” for “treatment.”

In a further data set the test system is jejunum. Nature of the data set: Histological examination of intestinal injury. The format is in vivo, mouse. To be noted: following indomethacin treatment. Here is the method: as §1
After sacrifice, jejunum of the indomethacin-treated mice were removed, formalin-fixed and paraffin-embedded. They were cut to 4-μm thickness and stained with hematoxylin-phloxine-saffron. Immunohistochemistry was performed on jejunum cryosections using the anti-Vanin-1 mAb H202-407 modified from Aurrand-Lions et al. (Aurrand-Lions, 1996).

Where [6] appears, read: as described by Pitari et al. (1994).
The mark [7] stands for this setting: control as in indomethacin-treated animals.
Setting [8] is: cystamine administered without indomethacin.
Where [9] appears, read: jejunum, Vanin-1−/− mice, indomethacin 2 x 25 mg/kg SC.
Where [10] appears, read: NAC given to indomethacin-treated mice.

With `c1cc(SSc2ccncc2)ccn1` [4,4′-dithiodipyridine], in the data set on Vanin-1 (setting [6]), the “type of Vanin-1 (pantetheinase) inhibition” value is recorded as “reversible inhibition”.

With `O=C(O)c1cc(SSc2ccc([N+](=O)[O-])c(C(=O)O)c2)ccc1[N+](=O)[O-]` [5,5′-dithiobis(2-nitrobenzoic acid)], in the data set on Vanin-1 (setting [6]), the “type of Vanin-1 (pantetheinase) inhibition” value is given as “reversible inhibition”.

`NCCSSCCN` [Cystamine, cystamine]: the GSH in the data set with GSH [1] (KO (Vanin-1−/−) mice) is 5.55 ± 1.20; with GSH [1] (WT mice), 5.36 ± 1.15; in the data set with GSH [3] (KO (Vanin-1−/−) mice), 1.0 ± 0.05; with GSH [3] (WT mice), 0.90 ± 0.12. In addition, the “GSH levels, change” value with GSH [1] (setting [7]) was “dramatically reduced”. The γ-GCS at γ-GCS [2] (KO (Vanin-1−/−) mice) is recorded as 11.2 ± 0.58; at γ-GCS [2] (WT mice), 10.8 ± 0.63; at γ-GCS [4] (KO (Vanin-1−/−) mice), 21.5 ± 2.4; on γ-GCS [4] (WT mice), 20.2 ± 1.2. Besides, the “γ-GCS activity, change” value at γ-GCS [2] (setting [7]) is listed as “dramatically reduced”. In addition, in the data set with GSH [3] (cystamine administration), the “intestinal GSH levels, change” value is reported as “reduced”. In addition, the “COX-2 mRNA” value in data set [5] (setting [8]) is given as “moderate upregulation”. In addition, in data set [5] (setting [8]), the “iNOS and MIP-2 mRNAs” value is reported as “did not change”. Further, the “mRNA expression of inflammatory factors” value in data set [5] (cystamine given to indomethacin-treated Vanin-1−/− mice) is “restored mRNA expression to WT levels”. Further, the “type of Vanin-1 (pantetheinase) inhibition” value with Vanin-1 (setting [6]) is on record as “reversible inhibition”.

On to `COc1ccc2c(c1)c(CC(=O)O)c(C)n2C(=O)c1ccc(Cl)cc1` [Indomethacin, indomethacin], for which the GSH in the data set on GSH [1] (KO (Vanin-1−/−) mice) is on record as 16.6 ± 1.26; in the data set with GSH [1] (WT mice), 9.50 ± 1.44; in the data set with GSH [3] (KO (Vanin-1−/−) mice), 1.37 ± 0.24; with GSH [3] (WT mice), 0.56 ± 0.08. For the same molecule, the γ-GCS at γ-GCS [2] (KO (Vanin-1−/−) mice) is recorded as 37.9 ± 3.33; on γ-GCS [2] (WT mice), 23.4 ± 0.72; at γ-GCS [4] (KO (Vanin-1−/−) mice) it was 23.7 ± 2.63; on γ-GCS [4] (WT mice), 18.4 ± 2.18. The “γ-GCS activity, change” value at γ-GCS [2] (following indomethacin treatment) is “increased”. Also, the “COX-2 and iNOS mRNAs” value in data set [5] (setting [9]) was “barely amplified”. For the same molecule, the “MIP-2 mRNA” value in data set [5] (setting [9]) was “undetectable”. For the same molecule, in data set [5] (jejunum, WT mice, indomethacin 2 x 25 mg/kg SC), the “COX-2, iNOS and MIP-2 mRNAs” value was “sharp augmentation”. In addition, the “Intestinal MPO activity” value in the data set with MPO is “dramatically enhanced”. The results for the “Histology of intestinal injury” value in the data set on jejunum (Vanin-1−/− mice) and in the data set on jejunum (WT mice) were “appeared normal” and “flattened mucosal villi”, respectively.

Turning to `CCN1C(=O)C=CC1=O` [N-ethyl maleimide], the “type of Vanin-1 (pantetheinase) inhibition” value in the data set with Vanin-1 (setting [6]) is given as “irreversible inhibition”.

With `CC(=O)N[C@@H](CS)C(=O)O` [NAC, N-acetylcysteine], the “GSH levels, effect” value with GSH [3] (setting [10]) was “no marked effect”. Moreover, the “γ-GCS activity, effect” value on γ-GCS [4] (setting [10]) is “no marked effect”.

Turning to `NC(=O)CI` [iodoacetamide], the “type of Vanin-1 (pantetheinase) inhibition” value with Vanin-1 (setting [6]) is given as “irreversible inhibition”.

As to `O=C(O)CI` [iodoacetate], the “type of Vanin-1 (pantetheinase) inhibition” value in the data set with Vanin-1 was “irreversible inhibition”.

In the case of `OCCSSCCO` [oxidized mercaptoethanol], the “type of Vanin-1 (pantetheinase) inhibition” value in the data set with Vanin-1 (setting [6]) is “reversible inhibition”.
